Data reported in patent publication US20070141028A1, “Cancer gene therapeutic drug” (priority 2003, published 2007).

Tests used:
Format in all cases: cell-based
ovarian cancer cells HEY = experiment: Influence of Fe and ALA on the proliferation inhibitory effect of adenovirus AdE3-1A1.3B (virus rate at IC50); conditions: IC50 after five days
Experimental: Ovarian cancer cells HEY were cultured in 12-well plate at a rate of 10,000 cells/well and FeSO4 was added at a concentration of 50 μg/ml, 5 μg/ml, 0.5 μg/ml or 0 μg/ml on the following day and the cytolysis type adenovirus AdE3-1A1.3B was added to all wells. The proliferation inhibitory effect of the adenovirus was evaluated by IC50 after five days.
(§1) Next, the ovarian cancer cell line HEY was cultured in a 12-well plate at a rate of 10,000 cells/well and 5-aminolevulinic acid (ALA) was added at a concentration of 50 μg/ml, 5 μg/ml, 0.5 μg/ml or 0 μg/ml on the following day and the cytolysis type adenovirus AdE3-1A1.3B was added to all wells. The proliferation inhibitory effect of the adenovirus was evaluated by IC50 after five days.
as §1, with “Furthermore,” for “Next,”, “FeSO4” for “5-aminolevulinic acid (ALA)”, “day. In addition,” for “day and”, “AdE3-1A1.3B and 50 μg/ml of 5-aminolevulinic acid (ALA) were added to each well. Only the adenovirus” for “AdE3-1A1.3B”, “a control.” for “all wells.”

cancer cells [1] = experiment: PFU assay of adenovirus production
Source text: (§2) That is, ALA and Fe can enhance antitumor effect, because they can increase the infectivity of adenovirus to cancer cells and the amount of virus production within the cells.

cancer cells [2] = experiment: β-gal assay of adenovirus infectivity
Source text: as §2

| Molecule | proliferation inhibitory effect relative to only adenovirus administration (ovarian cancer cells HEY; 50 μg/ml ALA + AdE3-1A1.3B) | amount of adenovirus production (cancer cells [1]) | infectivity of adenovirus (cancer cells [2]) | proliferation inhibitory effect relative to only adenovirus administration (ovarian cancer cells HEY; 0.5 μg/ml FeSO4 + 50 μg/ml ALA + AdE3-1A1.3B) | proliferation inhibitory effect relative to only adenovirus administration (ovarian cancer cells HEY; 5 μg/ml FeSO4 + 50 μg/ml ALA + AdE3-1A1.3B) | proliferation inhibitory effect relative to only adenovirus administration (ovarian cancer cells HEY; 5 μg/ml FeSO4 + AdE3-1A1.3B) | proliferation inhibitory effect relative to only adenovirus administration (ovarian cancer cells HEY; 50 μg/ml FeSO4 + 50 μg/ml ALA + AdE3-1A1.3B) | proliferation inhibitory effect relative to only adenovirus administration (ovarian cancer cells HEY; 50 μg/ml FeSO4 + AdE3-1A1.3B) |
| --- | --- | --- | --- | --- | --- | --- | --- | --- |
| NCC(=O)CCC(=O)O [ALA, 5-aminolevulinic acid] | about 100 fold | increased amount of adenovirus production | increased infectivity of adenovirus | – | – | – | – | – |
| ferrous sulfate [FeSO4] | – | – | – | about 200 fold | about 700 fold | about 8 fold | about 1,000 fold | about 20 fold |
